Measured values: US20260231951A1, “COATED SEEDS AND METHODS TO IMPROVE CROPS” (MONTANA STATE UNIVERSITY, priority 2023, published 2026)

Legend:
wheat [1] = test: Greenhouse tests to identify ideal DBDTP seed treatment concentrations for wheat (SPRET surfactant); format: in vivo
Method: (§1) All greenhouse experiments took place under a 16-hour photoperiod with temperatures set to 22° C. day and 18° C. night.
(§2) Two seed treatment methods were examined: 1) Seed treated with DBDTP applied using a non-ionic surfactant and 2) Seed treated with DBDTP added to commonly used pesticide seed treatments (Example 8). For this testing, DBDTP was used as the dithiophosphate source. Note that the seed treatment concentration and volume is not standard across plant species. Each species tolerates a different level of DBDTP and the volume used to treat each species is dependent on seed size. After adding treatment to seed, seed was rolled for 5 minutes. Seed was then exposed to air and allowed to dry completely prior to planting.
(§3) For this method, the non-ionic wetter/spreader surfactant used for all treatments was SPRET (Helena Holding Company). The lowest recommended SPRET concentration was selected from the product label (1.25 mL/L H2O).
Greenhouse tests to identify ideal DBDTP seed treatment concentrations: A 7% w/v solution was used for each DBDTP treatment to achieve an even coating of wheat seeds. For each DBDTP level, small amounts of DBDTP were dissolved in the SPRET solution according to Table 2 and seed was treated with a 7% w/v solution. Five seeds were sown in 6″ pots and averaged for a single rep. Each DBDTP treatment had three replications.

wheat [2] = test: Greenhouse test of DBDTP added to Cruiser Maxx Vibrance Cereals slurry for wheat; format: in vivo
Method: (§4) For this method, DBDTP amounts were combined with commonly used seed treatment pesticides using the recommended, crop-specific amount on the product label. The pesticides that were used include Obvius Plus Specimen fungicide seed treatment (BASF Corporation), Dyna-Shield imidacloprid 5 (Loveland Products), and Cruiser Maxx Vibrance Cereals (Syngenta). Pesticide amounts correspond to species-specific recommended amounts on the product label. After treatments were added to seeds, seed was rolled 5 minutes and allowed to dry completely.
DBDTP was added to a slurry of Cruiser Maxx Vibrance Cereals according to Table 8. Prior to the addition of DBDTP, the pesticide was diluted 1:1 Cruiser:H2O. DBDTP was added to the diluted Cruiser, such that 2.1 mg DBDTP was added to 62.5 μL to treat 5 g of seed. This experiment was planted in the greenhouse, and at 14 days after planting, the 25 mM treated seed was taller and had more tillers than the 0 mM control (FIG. 13). This experiment was planted in two separate greenhouses-one where the lights had been recently replaced with new LED lights, and one where the old light system remained. […] The main difference observed between the lights was that growth was much enhanced under the new lights, boosting tillering overall. This means that tillering differences due to DBDTP treatment may be observed earlier under the new LED light system.

corn = conditions: addition to a commercial liquid starter fertilizer applied in furrow with the seeds; cited from earlier work
wheat [3] = test: Greenhouse comparison of wheat growth after 25 mM seed treatments of three dithiophosphates; format: in vivo; conditions: 25 mM seed treatment in diluted SPRET, 7% w/v, 21 days after planting
Method: as §1
Dithiophosphates have different chemical properties depending on the length of their chains. For instance, the length of the carbon chain influences solubility of the chemical and the rate of H2S release. Growth of wheat when treated with 25 mM seed treatments of three different DTPs: dibutyldithiophosphate (C4), dioctyldithiophosphate (C8), and dihexyldecycldithiophosphate (C16) was evaluated. Chemical amount per seed used in 25 mM seed treatment applications is described in Table 1. Seed was treated with a 25 mM solution in which the DTP was dissolved in a low concentration of SPRET non-ionic surfactant (Method 1 below). After seeds had dried, they were sown in moist potting soil at a rate of 4 seeds per pot and then not watered for 5 days. There were 5 reps for each treatment where each rep was the average from a single pot. Measurements were collected 21 days after planting. Tiller number was improved for each of the three DTP treatments but was most improved with the dibutyl dithiophosphate (C4) source (FIG. 4).
as §2, §3

wheat [4] = test: Greenhouse trial, wheat with slow-release fertilizer and aqueous delivery of DBDTP; format: in vivo; conditions: 5 and 25 mg/pot DBDTP in 200 mL water, in the presence of fertilizer (Osmocote), 4 weeks after planting
Method: as §1
Wheat: To test whether the germination test growth enhancement response observed in wheat would still occur in the presence of added nitrogen fertilizer, wheat was grown under varying levels of slow-release fertilizer (Osmocote) and then watered in with an aqueous solution of DBDTP (see Carter J M, et al., 2019, J. Agric Food Chem. 67:11883-11892). Osmocote was added to potting soil according to the label to achieve low or medium fertilization rates. Prior to planting, pots were watered and seed was sown into moist potting soil. Immediately after planting, each pot was watered with 200 mL water containing, 0, 5, 25, 50, 100, or 500 mg dissolved DBDTP. Pots were not watered for ~5 days after planting to avoid flushing DBDTP out of the pot.

Cherry Belle F1 radish = test: Field trial of DBDTP treated radish seed; format: in vivo
Method: Seed treatment levels consisted of 0, 12.5, 25, 50, and 100 mM DBDTP (Table 5) and seed was treated with a 7% w/v solution of diluted SPRET surfactant and DBDTP. For each seed treatment level, 15 reps were planted using a complete, randomized block design. Each rep consisted of a single 3′ row plot. Plots were seeded at a rate of 36 seeds/row and thinned to 4-6″ apart. Root fresh weight was averaged for each row and each row was considered a single rep. Root biomass was increased compared to the control at the 12.5 mM treatment level (FIG. 10). This corresponded to 0.001 mg/seed. Radish root growth likely be enhanced with an application rate in a range of 0.001-0.005 mg DBDTP/seed.

Avondale lentil = test: Greenhouse test of DBDTP seed treatment concentration for lentil growth; format: in vivo
Method: Testing was carried out in the greenhouse. Seed was treated according to Table 4. Prior to planting, pots were watered and seed was sown into moist potting soil. Pots were not watered for 5 days after planting to avoid flushing DBDTP out of the pot. […] Seed was treated with a 1.5% w/v solution of diluted SPRET surfactant with addition of DBDTP. Early plant growth was boosted between treatment concentrations 0.188 M-1.7 M. A likely beneficial treatment range lies between 0.03-0.26 mg/seed.

Provider bush beans = test: Field trial of DBDTP treated green bean seed; format: in vivo
Method: Seed treatment levels consisted of 0, 175 mM, 350 mM, 700 mM, and 1.4 M DBDTP (Table 3) and seed was treated with a 5% w/v solution of diluted SPRET surfactant and DBDTP. For each seed treatment level, 15 reps were planted using a complete, randomized block design. Each rep consisted of a 3′, 2 row plot with 18 seeds planted per row. Entire plants were harvested at maturity and biomass was averaged for each row. Each row was considered a single rep. For each plot of treated seed, biomass was increased compared to the 0 mM control (FIG. 8A). […] Depending on whether the goal was to increase seed weight, or plant biomass, an ideal treatment range encompasses the 175 mM, 350 mM, and 700 mM treatments. These concentrations correspond to a range of 0.07-0.28 mg DBDTP/seed.

MT 457 green field pea = test: Field trial of DBDTP treated green field pea (with pesticide seed treatments); format: in vivo
Method: as §4
Seed treatment levels consisted of 0, 52, 103, 207, and 413 mM DBDTP (Table 6). Seed was treated with a 1.7% w/v solution that included DBDTP and seed treatment pesticides Dyna-Shield and Obvius (Table 6). After seed was treated and dried, it was inoculated with N Charge Inoculant for Pea, Vetch, and Lentil (Verdesian; 1.40 g/450 g seed) and planted within the same day as inoculating. For each seed treatment level, 15 reps were planted using a complete, randomized block design. Each rep consisted of a 10′, 2 row plot with 60 seeds planted per row. Mature seed was harvested for each plot. […] Seed yield was increased under all treatment levels tested, in a range of 0.04-0.31 mg/seed.

MT Dagmar spring wheat = test: Field trial of DBDTP treated wheat seed; format: in vivo
Method: Seed treatment levels consisted of 0, 12.5, 25, 50, and 100 mM DBDTP as in Table 2 and applied in a 7% w/v solution. All seed for each treatment (1000 g) was treated at one time and then once dried it was weighed out for planting in single rows. For each seed treatment level, 15 reps were planted using a complete, randomized block design. Each rep consisted of a 10′, 2 row plot. Plots were seeded at a rate of 10 g/row. Seed was tractor planted, and prior to planting, the field was worked, and N was delivered to achieve 390 Ibs urea/acre. […] The 12.5 mM and 25 mM seed treatments appear to be the best concentrations to boost grain yield as well, as these treatments yielded an average of 3.5-5% higher respectively than the 0 mM control (FIG. 7B). An ideal treatment range encompasses the 12.5 mM and 25 mM treatments and high end of ideal concentrations likely lies between the 25 mM and 50 mM treatments.

pea [5] = test: Greenhouse trial, pea with aqueous delivery of DBDTP; format: in vivo; conditions: 4 weeks after planting
Method: as §1
Pea: Prior to planting, pots were watered and seed was sown into moist potting soil. Immediately after planting, each pot was watered with 200 mL water containing, 0, 5, 25, 50, 100, or 500 mg dissolved DBDTP. Pots were not watered for ~5 days after planting to avoid flushing DBDTP out of the pot.

pea [6] = test: Pea germination test (cigar roll method) in aqueous DBDTP; format: in vivo; conditions: at all levels of DBDTP tested, 7 days
Method: Pea: For germination tests, 25 pea seeds were placed within each roll of germination paper using the cigar method described above. Measurements were recorded after 7 days with n=250.

chickpea = test: Greenhouse test of DBDTP seed treatment concentration for chickpea growth (pesticide slurry); format: in vivo
Method: as §4
This test took place in the greenhouse. Seed was treated according to Table 7. Prior to planting, pots were watered and seed was sown into moist potting soil. Pots were not watered for 5 days after planting to avoid flushing DBDTP out of the pot. […] An ideal range likely falls between 0.05-0.46 mg DBDTP/seed.

wheat [7] = test: Wheat germination test (cigar roll method) in aqueous DBDTP; format: in vivo; conditions: wheat seeds in germination paper rolls, 7 days, compared to the 0 mg/L control; 41.2 μM-1.03 mM
Method: Wheat: For germination tests, 50 wheat seeds were placed within a roll of germination paper using the cigar roll method (Bai C, 2013, J Exp Bot, 64:1745-1753) with n=50. Rolls were placed upright in tubs containing varying concentrations of DBDTP in water, such that the end of the roll was submerged 3″ into the solution. Lids were placed on tubs, then shoot and root length measurements were recorded after 7 days.

[8] = seed treatments of up to 50 mM DBDTP, 35 days after planting
[9] = 25 mM in Cruiser Maxx Vibrance Cereals slurry, 14 days after planting, vs 0 mM control

CCCCOP(=S)(S)OCCCC [DBDTP, dibutyl dithiophosphate]
germination (wheat [1]; seed treatment doses higher than 50 mM, 7% w/v in SPRET): reduce germination
plant height (wheat [1]; [8]): enhanced
tiller number (wheat [1]; [8]): enhanced
plant height (wheat [2]; [9]): taller
tiller number (wheat [2]; [9]): more tillers
performance against control in both greenhouses (new LED lights, old light system) (wheat [2]; 25 mM treated seed): outperformed the control
corn yield (corn): increases corn yield
tiller number (wheat [3]): most improved
tiller number (wheat [4]): boost to tiller number
root biomass (root fresh weight) (Cherry Belle F1 radish; 12.5 mM treatment level (0.001 mg/seed), vs control): increased
Likely ideal DBDTP range, radish (Cherry Belle F1 radish; seed treatment, radish): 0.001-0.005 mg/seed
growth response of lentil (Avondale lentil; around the 375 mM treatment level, 14 days after planting, 1.5% w/v SPRET): positive DBDTP growth response
Likely ideal (beneficial) DBDTP range, lentil (Avondale lentil; seed treatment, lentil): 0.03-0.26 mg/seed
plant biomass (Provider bush beans; each plot of treated seed (175 mM, 350 mM, 700 mM, 1.4 M), harvested at maturity, vs 0 mM control): increased
seed pod weight (Provider bush beans; lowest level tested (175 mM), vs control): increased
Likely ideal DBDTP range, green bean (Provider bush beans; seed treatment, green bean): 0.07-0.28 mg/seed
seed yield, best treatment (MT 457 green field pea; 413 mM treated seed): highest yielding
seed yield (MT 457 green field pea; each plot of treated seed (52, 103, 207, 413 mM), with Dyna-Shield and Obvius, vs control): increased
Likely ideal DBDTP range, pea (range in which seed yield was increased) (MT 457 green field pea; seed treatment, pea): 0.04-0.31 mg/seed
grain yield, average increase over the 0 mM control (MT Dagmar spring wheat; 12.5 mM seed treatment): 3.5%
grain yield, average increase over the 0 mM control (MT Dagmar spring wheat; 25 mM seed treatment): 5%
plant growth and yield (MT Dagmar spring wheat; 100 mM DBDTP seed treatment): significantly diminished
tiller number (MT Dagmar spring wheat; 12.5 and 25 mM seed treatment, 4 weeks after planting, vs 0 mM control): significantly higher
growth response (pea vine length), best doses (pea [5]; 100 and 500 mg/pot DBDTP): greatest boost to growth
growth response (pea vine length) (pea [5]; each DBDTP treatment (5, 25, 50, 100, 500 mg/pot in 200 mL water)): positive response
growth response of pea seedlings (pea [6]): positive growth response
growth response of chickpea (chickpea; 100 mM treatment level in pesticide slurry, 14 days after planting): positive DBDTP growth response
Likely ideal DBDTP range, chickpea (chickpea; seed treatment, chickpea): 0.05-0.46 mg/seed
DBDTP concentration range with positive growth response (shoot and root length) (wheat [7]): 10 to 250 mg/L

dihexyldecycldithiophosphate [dihexyldecycldithiophosphate (C16)]
tiller number (wheat [3]): improved

CCCCCCCCOP(=S)(S)OCCCCCCCC [dioctyldithiophosphate (C8), dioctyldithiophosphate]
tiller number (wheat [3]): improved
